Data from patent US10959427B2, “Attractant of ladybugs, aphid's natural enemy” (Zhejiang University, priority 2018, dated 2021).

Test system: Coccinella septempunctata
Test: Wind tunnel experiment: behavioral responses of ladybugs to the attractant
Type: in vivo
Conditions: for Proportion of Knocking Filter Paper, Female Proportion / Proportion of Passing Through ½ of Wind Tunnel, Female Proportion / Proportion of Take Off, Female Proportion: female ladybugs; for Proportion of Knocking Filter Paper, Female Proportion / Proportion of Knocking Filter Paper, Male Proportion: number of insects knocking filter paper/total number of insects; for Proportion of Knocking Filter Paper, Female Proportion / Proportion of Passing Through ½ of Wind Tunnel, Female Proportion / Proportion of Take Off, Female Proportion / Proportion of Knocking Filter Paper, Male Proportion / Proportion of Passing Through ½ of Wind Tunnel, Male Proportion / Proportion of Take Off, Male Proportion: 30 min, 28° C., wind speed 0.3 m/s; for Proportion of Passing Through ½ of Wind Tunnel, Female Proportion / Proportion of Passing Through ½ of Wind Tunnel, Male Proportion: number of insects passing through ½ of wind tunnel/total number of insects; for Proportion of Take Off, Female Proportion / Proportion of Take Off, Male Proportion: number of take-off insects/total number of insects; for Proportion of Knocking Filter Paper, Male Proportion / Proportion of Passing Through ½ of Wind Tunnel, Male Proportion / Proportion of Take Off, Male Proportion: male ladybugs; for Attraction of ladybugs in the wind tunnel, result in words: summary of wind tunnel results
Method: (§1) Wind tunnel experiments were performed using a wind tunnel device to determine the behavioral responses of ladybugs to the attractant. The wind tunnel device is 90 cm long, 35 cm wide and 35 cm high. The desired ladybugs were put into a glass tube 30 minutes before the test, and both the ends of the glass tube were sealed with absorbent cotton to adapt the ladybugs to the environment in the wind tunnel. The filter paper-loaded compound was placed on the upper air outlet, and the wind speed in the wind tunnel was 0.3 m/s. The whole process of bioassay was carried out at 28° C. The glass tube was placed at the end of the lower air outlet of the wind tunnel. Timing started and lasted for 30 min. The numbers of take-offs, directional flights, and proximity to attractant sources were recorded and their relative proportions were calculated. The experimental method was referred to the wind tunnel experiment of Binyameen M et al (Journal of Chemical Ecology, 2013, 39(10):1273-1283).
The behavioral responses of ladybugs to the attractants in Comparative Examples 1-5 were measured by using a wind tunnel device (same conditions as in Example 1).
as §1, with “to the attractants. The wind” for “to the attractant. The wind”, “glass tube with the ladybugs was placed” for “glass tube was placed”, “min. The proportions of take-offs,” for “min. The numbers of take-offs,”, “sources were recorded.” for “sources were recorded and their relative proportions were calculated. The experimental method was referred to the wind tunnel experiment of Binyameen M et al (Journal of Chemical Ecology, 2013, 39(10):1273-1283).”
Wind tunnel experiments were performed using a wind tunnel device to determine the behavioral responses of ladybugs to the attractants of Example 3 and Comparative Examples 6-10.
Wind tunnel experiments were performed using a wind tunnel device to determine the behavioral responses of ladybugs to the attractants of Example 4 and Comparative Examples11-20.
Note: Coccinella septempunctata were used in the above wind tunnel experiments; when the Rodolia limbata, Harmonia axyridis, Propylaea japonica and Chilocorus rubidus hope were taken as the experiment objects, the results (trend) were basically the same as that of Coccinella septempunctata.

SMILES	Proportion of Knocking Filter Paper, Female Proportion [%]	Proportion of Passing Through ½ of Wind Tunnel, Female Proportion [%]	Proportion of Take Off, Female Proportion [%]	Proportion of Knocking Filter Paper, Male Proportion [%]	Proportion of Passing Through ½ of Wind Tunnel, Male Proportion [%]	Proportion of Take Off, Male Proportion	Attraction of ladybugs in the wind tunnel, result in words
C=CC1(C)CCC(C(=C)C)CC1C(=C)C (stereo not shown) [Comparative Example 16, 1-vinyl-1-methyl-2,4-di (propyl-1-ene-2-yl) cyclohexane]	0	13.3	0	11.7	73.3	21.7%^	better effect on attracting male ladybugs but worse than Example 4
CCC/C=C/C(=O)O [Comparative Example 18, trans-2-hexenoic acid]	10	53.3	11.7	8.3	46.7	20%	poor attraction to female and male ladybugs
CC(C)CC=O [Comparative Example 19, isovaleraldehyde]	11.7	58.3	13.3	15	56.7	10%	poor attraction to female and male ladybugs
CC(C)=CCC/C(C)=C/CC/C(C)=C/CC/C=C(\C)CC/C=C(\C)CCC=C(C)C [Comparative Example 20, squalene]	13.3	61.7	20	6.7	66.7	26.8%^	number of insects knocking filter paper was significant less that the other examples
